# Measured values as given in ChEMBL document CHEMBL5058649, “Data for DCP probe BAY 1816032” (2022).
# Columns and labels:
# [1] = molecular target: Alpha-1D adrenergic receptor (Homo sapiens) (UniProt P25100); assay: Inhibition of Adrenergic alpha1D at 10 µM in the Eurofins-Panlabs radioligand binding assay (Eurofins_assay_203400); settings: Compound concentration 10.0 uM
# [2] = species on record: Rattus norvegicus; assay: Inhibition of Glycine, Strychnine-Sensitive at 10 µM in the Eurofins-Panlabs radioligand binding assay (Eurofins_assay_239000); settings: Compound concentration 10.0 uM
# [3] = molecular target: Mitotic checkpoint serine/threonine-protein kinase BUB1 (Homo sapiens, UniProt O43683); assay: BUB1 biochemical assay (high ATP)
# [4] = molecular target: Calcium/calmodulin-dependent protein kinase type IV (Homo sapiens) (UniProt Q16566); assay: CAMK4 DiscoveRx kinase panel; settings: Compound concentration 1.0 uM
# [5] = molecular target: Serine/threonine-protein kinase 32A (Homo sapiens) (UniProt Q8WU08); assay: YANK1 DiscoveRx kinase panel; settings: Compound concentration 1.0 uM
# [6] = molecular target: Casein kinase I isoform gamma-1 (Homo sapiens) (UniProt Q9HCP0); assay: CSNK1G1 DiscoveRx kinase panel; settings: Compound concentration 1.0 uM
# [7] = molecular target: Protein kinase C theta type (Homo sapiens) (UniProt Q04759); assay: PRKCQ DiscoveRx kinase panel; settings: Compound concentration 1.0 uM
# [8] = molecular target: Serine/threonine-protein kinase RIO1 (Homo sapiens) (UniProt Q9BRS2); assay: RIOK1 DiscoveRx kinase panel; settings: Compound concentration 1.0 uM
# [9] = molecular target: Macrophage-stimulating protein receptor (Homo sapiens) (UniProt Q04912); assay: MST1R DiscoveRx kinase panel; settings: Compound concentration 1.0 uM
# [10] = molecular target: Mitogen-activated protein kinase kinase kinase kinase 5 (Homo sapiens) (UniProt Q9Y4K4); assay: MAP4K5 DiscoveRx kinase panel; settings: Compound concentration 1.0 uM
# [11] = molecular target: Mitogen-activated protein kinase kinase kinase 6 (Homo sapiens) (UniProt O95382); assay: ASK2 DiscoveRx kinase panel; settings: Compound concentration 1.0 uM
# [12] = molecular target: Transient receptor potential cation channel subfamily M member 6 (Homo sapiens) (UniProt Q9BX84); assay: TRPM6 DiscoveRx kinase panel; settings: Compound concentration 1.0 uM
# [13] = molecular target: Mitogen-activated protein kinase 12 (Homo sapiens) (UniProt P53778); assay: p38-gamma DiscoveRx kinase panel; settings: Compound concentration 1.0 uM
# [14] = molecular target: Ephrin type-A receptor 3 (Homo sapiens) (UniProt P29320); assay: EPHA3 DiscoveRx kinase panel; settings: Compound concentration 1.0 uM
# [15] = molecular target: Tyrosine-protein kinase FRK (Homo sapiens) (UniProt P42685); assay: FRK DiscoveRx kinase panel; settings: Compound concentration 1.0 uM
# [16] = molecular target: Cyclin-dependent kinase 14 (Homo sapiens) (UniProt O94921); assay: PFTK1 DiscoveRx kinase panel; settings: Compound concentration 1.0 uM
# [17] = molecular target: Vascular endothelial growth factor receptor 1 (Homo sapiens) (UniProt P17948); assay: FLT1 DiscoveRx kinase panel; settings: Compound concentration 1.0 uM
# [18] = molecular target: Homeodomain-interacting protein kinase 4 (Homo sapiens) (UniProt Q8NE63); assay: HIPK4 DiscoveRx kinase panel; settings: Compound concentration 1.0 uM
# [19] = molecular target: Dual specificity mitogen-activated protein kinase kinase 7 (Homo sapiens) (UniProt O14733); assay: MKK7 DiscoveRx kinase panel; settings: Compound concentration 1.0 uM
# [20] = molecular target: Atypical kinase COQ8B, mitochondrial (Homo sapiens) (UniProt Q96D53); assay: ADCK4 DiscoveRx kinase panel; settings: Compound concentration 1.0 uM
# [21] = molecular target: Bone morphogenetic protein receptor type-2 (Homo sapiens) (UniProt Q13873); assay: BMPR2 DiscoveRx kinase panel; settings: Compound concentration 1.0 uM
# [22] = molecular target: Cyclin-dependent kinase 4/cyclin D1 (Homo sapiens) (UniProt P11802+P24385); assay: CDK4-cyclinD1 DiscoveRx kinase panel; type: protein-complex assay; settings: Compound concentration 1.0 uM
# [23] = molecular target: Mitogen-activated protein kinase kinase kinase kinase 3 (Homo sapiens) (UniProt Q8IVH8); assay: MAP4K3 DiscoveRx kinase panel; settings: Compound concentration 1.0 uM
# [24] = molecular target: MAP kinase-activated protein kinase 5 (Homo sapiens) (UniProt Q8IW41); assay: MAPKAPK5 DiscoveRx kinase panel; settings: Compound concentration 1.0 uM
# [25] = molecular target: Mitogen-activated protein kinase 14 (Homo sapiens) (UniProt Q16539); assay: p38-alpha DiscoveRx kinase panel; settings: Compound concentration 1.0 uM
# [26] = molecular target: Serine/threonine-protein kinase pim-1 (Homo sapiens) (UniProt P11309); assay: PIM1 DiscoveRx kinase panel; settings: Compound concentration 1.0 uM
# [27] = molecular target: Phosphatidylinositol 4-phosphate 5-kinase type-1 gamma (Homo sapiens) (UniProt O60331); assay: PIP5K1C DiscoveRx kinase panel; settings: Compound concentration 1.0 uM
# [28] = molecular target: Dual serine/threonine and tyrosine protein kinase (Homo sapiens) (UniProt Q6XUX3); assay: RIPK5 DiscoveRx kinase panel; settings: Compound concentration 1.0 uM
# [29] = molecular target: Ribosomal protein S6 kinase alpha-5 (Homo sapiens) (UniProt O75582); assay: RPS6KA5(Kin.Dom.2-C-terminal) DiscoveRx kinase panel; settings: Compound concentration 1.0 uM
# [30] = molecular target: Ribosomal protein S6 kinase beta-1 (Homo sapiens) (UniProt P23443); assay: S6K1 DiscoveRx kinase panel; settings: Compound concentration 1.0 uM
# [31] = molecular target: Serine/threonine-protein kinase TAO2 (Homo sapiens) (UniProt Q9UL54); assay: TAOK2 DiscoveRx kinase panel; settings: Compound concentration 1.0 uM
# [32] = molecular target: Tyrosine-protein kinase Tec (Homo sapiens) (UniProt P42680); assay: TEC DiscoveRx kinase panel; settings: Compound concentration 1.0 uM
# [33] = molecular target: TGF-beta receptor type-2 (Homo sapiens) (UniProt P37173); assay: TGFBR2 DiscoveRx kinase panel; settings: Compound concentration 1.0 uM
# [34] = molecular target: Muscarinic acetylcholine receptor M1 (Homo sapiens) (UniProt P11229); assay: Muscarinic M1 Eurofins-Panlabs radioligand binding assay; settings: Compound concentration 10.0 uM
# [35] = molecular target: C-X-C chemokine receptor type 2 (Homo sapiens) (UniProt P25025); assay: Chemokine CXCR2 (IL-8RB) Eurofins-Panlabs radioligand binding assay; settings: Compound concentration 10.0 uM
# [36] = molecular target: T1, Alpha-2A adrenergic receptor (Homo sapiens) (UniProt P08913); settings: Compound concentration 10.0 uM
# T1 sequence (whole entry): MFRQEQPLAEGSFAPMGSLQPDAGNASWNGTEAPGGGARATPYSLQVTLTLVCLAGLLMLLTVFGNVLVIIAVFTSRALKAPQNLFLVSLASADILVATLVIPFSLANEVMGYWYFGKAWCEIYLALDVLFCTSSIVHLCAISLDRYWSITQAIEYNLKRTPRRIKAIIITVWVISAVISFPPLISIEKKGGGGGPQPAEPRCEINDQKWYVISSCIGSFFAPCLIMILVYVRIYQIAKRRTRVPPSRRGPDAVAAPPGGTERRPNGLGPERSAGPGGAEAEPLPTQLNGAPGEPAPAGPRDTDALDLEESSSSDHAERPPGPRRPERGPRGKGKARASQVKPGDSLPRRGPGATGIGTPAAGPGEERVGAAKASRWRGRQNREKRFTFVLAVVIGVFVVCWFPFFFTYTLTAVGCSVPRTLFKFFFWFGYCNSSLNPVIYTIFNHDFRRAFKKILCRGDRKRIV
# [37] = molecular target: Muscarinic acetylcholine receptor M5 (Homo sapiens) (UniProt P08912); settings: Compound concentration 10.0 uM
# [38] = molecular target: Beta-1 adrenergic receptor (Homo sapiens) (UniProt P08588); settings: Compound concentration 10.0 uM
# [39] = molecular target: Sodium-dependent dopamine transporter (Homo sapiens, UniProt Q01959); settings: Compound concentration 10.0 uM
# [40] = molecular target: GABA-A receptor; anion channel (Rattus norvegicus) (UniProt O09028+P15431+P18506+P18508+P19969+P20236+P23574+P23576+P28471+P28473+P30191+P62813+P63079+P63138+Q91ZM7+Q9ES14); settings: Compound concentration 10.0 uM
# Chain of Mitotic checkpoint serine/threonine-protein kinase BUB1 (O43683 whole entry): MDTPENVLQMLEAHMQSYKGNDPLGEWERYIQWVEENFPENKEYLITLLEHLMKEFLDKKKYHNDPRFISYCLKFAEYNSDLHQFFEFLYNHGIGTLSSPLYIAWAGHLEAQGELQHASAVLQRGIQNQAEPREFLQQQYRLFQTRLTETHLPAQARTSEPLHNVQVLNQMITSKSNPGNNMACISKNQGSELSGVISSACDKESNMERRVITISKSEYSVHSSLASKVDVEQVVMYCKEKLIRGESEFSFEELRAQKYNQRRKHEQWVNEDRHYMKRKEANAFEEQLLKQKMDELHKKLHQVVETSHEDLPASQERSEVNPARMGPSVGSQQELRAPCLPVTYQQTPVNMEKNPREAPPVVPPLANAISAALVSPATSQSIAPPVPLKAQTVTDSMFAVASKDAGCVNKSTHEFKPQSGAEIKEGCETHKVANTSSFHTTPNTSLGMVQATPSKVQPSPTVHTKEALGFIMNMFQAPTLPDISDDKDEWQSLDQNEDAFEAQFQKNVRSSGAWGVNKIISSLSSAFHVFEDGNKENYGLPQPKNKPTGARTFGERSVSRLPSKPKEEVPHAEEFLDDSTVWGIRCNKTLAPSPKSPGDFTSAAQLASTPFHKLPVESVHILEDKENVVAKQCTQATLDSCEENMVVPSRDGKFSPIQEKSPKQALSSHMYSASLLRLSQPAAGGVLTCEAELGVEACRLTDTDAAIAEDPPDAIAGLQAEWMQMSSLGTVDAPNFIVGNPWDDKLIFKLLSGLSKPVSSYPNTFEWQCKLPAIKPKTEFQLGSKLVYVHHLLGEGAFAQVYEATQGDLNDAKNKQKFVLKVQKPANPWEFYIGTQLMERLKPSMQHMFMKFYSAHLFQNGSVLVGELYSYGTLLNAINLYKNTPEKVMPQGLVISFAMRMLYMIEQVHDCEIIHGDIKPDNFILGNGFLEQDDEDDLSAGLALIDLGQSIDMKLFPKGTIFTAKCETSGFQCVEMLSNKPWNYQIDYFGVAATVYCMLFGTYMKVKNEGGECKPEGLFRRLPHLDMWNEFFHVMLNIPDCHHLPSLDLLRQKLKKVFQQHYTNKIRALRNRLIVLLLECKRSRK
# Chain of Tyrosine-protein kinase FRK (Homo sapiens) (P42685 whole entry): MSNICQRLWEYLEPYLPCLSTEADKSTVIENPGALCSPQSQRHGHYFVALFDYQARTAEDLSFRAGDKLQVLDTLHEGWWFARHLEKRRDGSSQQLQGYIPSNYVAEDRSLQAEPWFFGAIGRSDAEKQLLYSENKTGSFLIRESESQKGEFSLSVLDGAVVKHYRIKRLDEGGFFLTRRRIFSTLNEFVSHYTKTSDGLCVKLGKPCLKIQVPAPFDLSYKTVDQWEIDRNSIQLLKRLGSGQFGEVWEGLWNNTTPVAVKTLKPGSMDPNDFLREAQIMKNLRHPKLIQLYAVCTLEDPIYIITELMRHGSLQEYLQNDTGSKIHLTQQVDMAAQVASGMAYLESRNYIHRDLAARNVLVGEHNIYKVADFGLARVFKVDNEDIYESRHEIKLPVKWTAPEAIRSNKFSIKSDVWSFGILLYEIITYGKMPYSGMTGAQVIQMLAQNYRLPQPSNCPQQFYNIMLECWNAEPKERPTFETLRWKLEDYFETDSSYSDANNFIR
# Chain of Ribosomal protein S6 kinase beta-1 (Homo sapiens) (P23443 whole entry, looked up): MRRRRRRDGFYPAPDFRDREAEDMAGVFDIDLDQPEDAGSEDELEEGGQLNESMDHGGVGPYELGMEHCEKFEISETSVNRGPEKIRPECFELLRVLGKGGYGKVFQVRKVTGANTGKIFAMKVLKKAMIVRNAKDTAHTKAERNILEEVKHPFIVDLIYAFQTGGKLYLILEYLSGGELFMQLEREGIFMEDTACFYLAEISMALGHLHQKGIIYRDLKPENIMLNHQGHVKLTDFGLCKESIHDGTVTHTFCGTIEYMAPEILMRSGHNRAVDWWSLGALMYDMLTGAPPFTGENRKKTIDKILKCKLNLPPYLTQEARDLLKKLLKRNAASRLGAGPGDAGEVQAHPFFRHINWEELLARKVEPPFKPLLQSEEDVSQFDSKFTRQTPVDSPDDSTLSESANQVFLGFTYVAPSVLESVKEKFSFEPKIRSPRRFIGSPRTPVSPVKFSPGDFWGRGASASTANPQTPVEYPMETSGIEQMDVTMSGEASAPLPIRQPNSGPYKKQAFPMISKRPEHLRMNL
# Chain of Alpha-1D adrenergic receptor (Homo sapiens) (P25100 whole entry): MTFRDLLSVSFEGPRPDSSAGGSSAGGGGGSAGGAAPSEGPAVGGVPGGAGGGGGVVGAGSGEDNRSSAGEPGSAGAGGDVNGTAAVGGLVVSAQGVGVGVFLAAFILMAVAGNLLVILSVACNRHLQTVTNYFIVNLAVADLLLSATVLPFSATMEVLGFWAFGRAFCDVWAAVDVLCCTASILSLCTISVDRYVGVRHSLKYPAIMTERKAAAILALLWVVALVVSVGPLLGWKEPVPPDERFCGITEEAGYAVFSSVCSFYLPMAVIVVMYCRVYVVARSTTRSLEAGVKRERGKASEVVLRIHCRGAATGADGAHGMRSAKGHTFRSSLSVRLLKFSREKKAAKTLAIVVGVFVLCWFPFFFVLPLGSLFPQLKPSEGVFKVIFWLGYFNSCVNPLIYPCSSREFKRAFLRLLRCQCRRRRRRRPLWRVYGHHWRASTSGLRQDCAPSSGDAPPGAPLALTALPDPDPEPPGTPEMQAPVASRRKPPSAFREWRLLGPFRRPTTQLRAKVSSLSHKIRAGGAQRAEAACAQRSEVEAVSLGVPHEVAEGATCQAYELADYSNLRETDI
# Chain of Calcium/calmodulin-dependent protein kinase type IV (Homo sapiens) (Q16566 whole entry): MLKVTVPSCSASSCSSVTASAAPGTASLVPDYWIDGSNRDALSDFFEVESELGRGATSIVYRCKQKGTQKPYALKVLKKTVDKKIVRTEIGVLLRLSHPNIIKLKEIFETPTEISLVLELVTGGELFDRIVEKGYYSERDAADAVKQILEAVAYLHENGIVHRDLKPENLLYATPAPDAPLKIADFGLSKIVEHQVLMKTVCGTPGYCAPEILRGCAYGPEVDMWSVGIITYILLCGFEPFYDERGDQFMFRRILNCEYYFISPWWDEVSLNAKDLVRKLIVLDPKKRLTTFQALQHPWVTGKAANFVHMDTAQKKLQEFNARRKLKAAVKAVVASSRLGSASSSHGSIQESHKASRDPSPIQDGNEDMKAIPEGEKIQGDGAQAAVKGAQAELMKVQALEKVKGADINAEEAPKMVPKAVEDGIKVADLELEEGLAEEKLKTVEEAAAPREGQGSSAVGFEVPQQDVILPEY
# Chain of Muscarinic acetylcholine receptor M1 (Homo sapiens) (P11229 whole entry): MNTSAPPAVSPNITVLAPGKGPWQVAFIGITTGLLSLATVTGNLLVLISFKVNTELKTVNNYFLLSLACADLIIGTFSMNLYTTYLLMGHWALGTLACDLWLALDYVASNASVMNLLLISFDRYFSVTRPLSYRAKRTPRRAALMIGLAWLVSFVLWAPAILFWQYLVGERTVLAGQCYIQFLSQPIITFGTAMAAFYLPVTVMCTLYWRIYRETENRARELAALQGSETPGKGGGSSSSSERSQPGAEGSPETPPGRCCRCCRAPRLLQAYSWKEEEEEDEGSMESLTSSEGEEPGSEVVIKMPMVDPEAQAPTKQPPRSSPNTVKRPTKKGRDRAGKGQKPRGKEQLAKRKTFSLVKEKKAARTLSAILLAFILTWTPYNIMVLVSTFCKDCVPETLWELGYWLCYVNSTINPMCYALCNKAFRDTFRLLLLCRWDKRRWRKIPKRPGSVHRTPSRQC
# Chain of MAP kinase-activated protein kinase 5 (Homo sapiens) (Q8IW41 whole entry): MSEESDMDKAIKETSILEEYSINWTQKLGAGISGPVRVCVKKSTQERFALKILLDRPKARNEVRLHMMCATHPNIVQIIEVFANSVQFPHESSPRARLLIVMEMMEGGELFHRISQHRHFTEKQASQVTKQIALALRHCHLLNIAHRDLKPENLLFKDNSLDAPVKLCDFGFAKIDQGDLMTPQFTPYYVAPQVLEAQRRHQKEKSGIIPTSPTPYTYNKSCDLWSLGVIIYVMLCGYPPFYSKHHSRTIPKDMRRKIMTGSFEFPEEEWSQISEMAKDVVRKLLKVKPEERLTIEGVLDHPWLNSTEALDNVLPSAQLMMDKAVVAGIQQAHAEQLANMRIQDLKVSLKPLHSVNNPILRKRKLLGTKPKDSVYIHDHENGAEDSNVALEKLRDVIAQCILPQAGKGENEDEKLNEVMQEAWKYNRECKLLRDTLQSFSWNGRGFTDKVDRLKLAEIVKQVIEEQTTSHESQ
# Chain of Mitogen-activated protein kinase 12 (Homo sapiens) (P53778 whole entry): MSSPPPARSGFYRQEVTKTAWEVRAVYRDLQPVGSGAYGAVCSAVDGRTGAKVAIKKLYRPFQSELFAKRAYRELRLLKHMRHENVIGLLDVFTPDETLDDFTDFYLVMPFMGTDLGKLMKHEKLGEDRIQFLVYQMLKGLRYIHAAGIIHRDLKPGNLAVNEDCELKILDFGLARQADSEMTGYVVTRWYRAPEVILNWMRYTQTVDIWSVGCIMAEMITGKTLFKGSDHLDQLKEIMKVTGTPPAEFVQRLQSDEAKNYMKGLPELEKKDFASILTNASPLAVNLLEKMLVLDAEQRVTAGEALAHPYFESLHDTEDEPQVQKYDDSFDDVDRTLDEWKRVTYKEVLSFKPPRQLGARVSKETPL
# Chain of Serine/threonine-protein kinase pim-1 (Homo sapiens) (P11309 whole entry, looked up): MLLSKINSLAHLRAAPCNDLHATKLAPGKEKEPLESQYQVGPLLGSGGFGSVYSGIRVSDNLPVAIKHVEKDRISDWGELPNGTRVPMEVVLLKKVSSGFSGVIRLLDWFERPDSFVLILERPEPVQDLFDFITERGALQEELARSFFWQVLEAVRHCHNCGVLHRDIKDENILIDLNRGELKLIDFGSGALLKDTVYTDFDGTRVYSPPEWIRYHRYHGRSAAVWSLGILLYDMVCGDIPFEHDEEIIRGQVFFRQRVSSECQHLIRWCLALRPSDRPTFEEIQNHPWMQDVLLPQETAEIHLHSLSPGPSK
smiles,measurement,setting,value
COc1cnccc1Nc1nc(-c2nn(Cc3c(F)cc(OCCO)cc3F)c3ccccc23)ncc1OC,inhibition,[1],24%
same,inhibition,[2],0%
same,IC50,[3],1.9 µM (not active)
same,residual activity,[4],68%
same,residual activity,[5],71%
same,residual activity,[6],74%
same,residual activity,[7],77%
same,residual activity,[8],79%
same,residual activity,[9],80%
same,residual activity,[10],81%
same,residual activity,[11],82%
same,residual activity,[12],82%
same,residual activity,[13],83%
same,residual activity,[14],85%
same,residual activity,[15],85%
same,residual activity,[16],87%
same,residual activity,[17],89%
same,residual activity,[18],90%
same,residual activity,[19],98%
same,residual activity,[20],99%
same,residual activity,[21],100%
same,residual activity,[22],100%
same,residual activity,[23],100%
same,residual activity,[24],100%
same,residual activity,[25],100%
same,residual activity,[26],100%
same,residual activity,[27],100%
same,residual activity,[28],100%
same,residual activity,[29],100%
same,residual activity,[30],100%
same,residual activity,[31],100%
same,residual activity,[32],100%
same,residual activity,[33],100%
same,inhibition,[34],32%
same,inhibition,[35],-3%
same,inhibition,[36],7.49%
same,inhibition,[37],8.89%
same,inhibition,[38],4%
same,inhibition,[39],-5%
same,inhibition,[40],60%
